This is an account of results in article PMC7496275, “Pentathiepins: A Novel Class of Glutathione Peroxidase 1 Inhibitors that Induce Oxidative Stress, Loss of Mitochondrial Membrane Potential and Apoptosis in Human Cancer Cells” (Chemmedchem, 2020).

Test [1] has as its system SISO human cervix cancer cell line. Nature of the test: Crystal violet proliferation assay. Format: cell-based. The conditions noted are these: Homo sapiens, 37 °C, 96 h, n>4, read-out: Inhibition of cell viability GI50 (CI 95 %). The protocol: GI50 values for 50 % growth inhibition were all in a low micro molar range (Table 1). […] The indole−pentathiepins gave lower GI50 values than the pyrrolo[1,2‐a]quinoxaline derivatives. […] There was also a trend showing that an electron rich substituent in position R^2 increased the antiproliferative effect in SISO cells.
Crystal violet proliferation assay: To measure cell growth inhibition, the crystal violet assay was carried out as previously described.37 Adherent cell lines were seeded out in a 96‐well plate (1000 cells per 200 μL culture medium) and allowed to attach for 24 h. Cells were exposed to nine serial dilutions of compound, added to the medium from 1000‐fold concentrated stock solutions in DMF. For the controls, cells were exposed to 0.1 % DMF alone. After addition of compounds, plates for the detection of the starting point of the proliferation at incubation time zero (t 0) were stopped with glutaraldehyde (see below), washed with Dulbecco's buffer (containing KCl 0.2 g/L, MgSO4 ⋅ 7 H2O 0.1 g/L, Na2HPO4 ⋅ >7 H2O 1.55 g/L, KH2HPO4 0.2 g/L and NaCl 8 g/L in water) and stored at 4 °C until the staining procedure. Treated cells were incubated for 96 h in the incubator, the medium was removed and replaced with 100 μL of 1 % glutaraldehyde in Dulbecco's buffer for 20 min. After washing twice with 150 μL of Dulbecco's buffer, the buffer was removed and replaced with 100 μL of a 0.02 % crystal violet solution dissolved in water for 30 min and subsequently washed in tap water for 15 min. Water was removed and replaced with 100 μL of ethanol (70 % in water) followed by shaking on a 96‐well shaker (MS3 digital, IKA‐Werke, Germany) for 2 h. Optical density was measured with a SpectraMax Plus 383 microtiter plate reader at λ=570 nm (Molecular Devices, USA). The optical density of t 0 plates at the time of treatment were subtracted from optical densities of plates with treated cells after 96 h (T), and the growth inhibition relative to untreated, control cells (C) as described.22 Growth inhibition concentrations at 50 % (GI50) were calculated by determining the inflection point of the sigmoidal log dose‐growth inhibition (%T/C) curves with the GraphPad Prism 6.0 software.

A further test relates to pBR322 plasmid. In words: Cleavage of supercoiled plasmid DNA. The conditions noted are these: 5 μM, 20 h, 37 °C. Here is the method: To assess the potential DNA‐cleaving activity of 4 a plasmid cleavage assay was performed. This method makes use of the different mobilities that plasmids display during electrophoretic separation processes in an agarose gel. An intact supercoiled plasmid has the highest mobility due to its compactness, open circular plasmids (ocDNA), e. g. plasmids with a single strand break, present a lower mobility due to increased friction of this less compact DNA construct. Commercially available DNA plasmids usually present ratios of 95 % supercoiled and 5 % ocDNA. Upon treatment with DNA‐damaging agents this ratio will be shifted towards a higher amount of ocDNA due to single strand breaks, or even linearized DNA in case double strand breaks are induced. […]
Cleavage of supercoiled plasmid DNA: For this assay, 0.3 μg pBR322 plasmid (Thermo Fisher) were incubated with either 0.1 % DMF or 5 μM 4 with or without 2 mM glutathione (GSH) in a 50 mM sodium phosphate buffer at pH 7.5 for 20 h in a 37 °C water bath. Afterwards, the samples were separated on a 1 % agarose (Geneon) gel at 80 V (5 V/cm) for 2 h, stained with GelRed (Biotium) and the image captured and bands quantified using ImageLab (Biorad). The resulting data was analyzed and visualized with Prism 7 (GraphPad).

A further test has as its system human GPx. In words: GPx activity assay with human cancer cell lysates (SISO). Format: biochemical. The following applies: inhibitor at its IC50 for bovine GPx, 0.5 mM GSH. Here is the method:
To investigate whether the pentathiepins have an inhibitory effect on human GPx, cell lysates of the human cervix cancer cell line SISO, which expresses high levels of GPx1 (see below), were incubated with either 4 or MSA in concentrations of the IC50 value for the inhibitory effect on bovine GPx1.
To measure the inhibition of human GPx activity, the enzyme assay was adapted to use human cancer cell lysates in place of the bovine enzyme. A quantity of 100 μg cellular protein (determined according to the Bradford method) per well was used. Due to the large consumption of cell lysates, just the inhibitory effect on GPx at one concentration of pentathiepin was determined in primary screening. The concentration of GSH was raised to a concentration of 0.5 mM to increase the velocity of the reaction, all other conditions were unchanged. The rates of NADPH oxidation were normalized to the solvent control. […] We used 100 μg protein of lysates and added GSH up to final concentrations between 0.375–3 mM. The rates of the GPx activity were calculated by nonlinear regression and the fitted with the GraphPad Prism 6.0 software: “Enzyme kinetics – Substrate vs. Velocity (Michaelis‐Menten)”.

The test system of the next test is HL-60 cells. In words: Detection of reactive oxygen species (DCF-DA flow cytometry). It is filed as cell-based, human. The conditions noted are these: 25 μM, 10 min. The text has this:
(§1) It has long been observed that pentathiepins are able to produce reactive oxygen species outside of cells.16, 17, 20 Whether ROS production can also occur in living cells has not yet been reported. To determine if 4 can produce ROS in HL‐60 and Gumbus cells, the cytosolic ROS detector 2′,7′‐dichlorofluorescin diacetate (DCF−DA) was used. […] Thus, pentathiepins appear capable of generating ROS inside living cells within a very short period of time.
(§2) Detection of reactive oxygen species: To detect cellular reactive oxygen species (ROS) a flow cytometry technique based on the use of the ROS‐sensor 2′,7′‐dichlorofluorescin diacetate (DCF‐DA) was used.38 Briefly, cells were collected in reaction tubes and washed with 500 μL phosphate buffered saline (PBS). The cell pellets were resuspended in 1 mL PBS and stained with 2 μL DCF‐DA stock solution (10 mM in DMSO) for 30 min at 37 °C. Then cells were washed with 500 μL PBS and suspended in 1 mL PBS followed by addition of […] 4 ([…]) to a final concentration of 25 μM. After an incubation period of 10 min cells were washed with PBS, resuspended in 500 μL PBS and analyzed by flow cytometry with a MACSQuant Analyzer 10 (Miltenyi Biotec, Germany) set at λ Ex/Em=488/530 nm.
(In general: Flow cytometry measures light scatter and fluorescence of single cells or particles in a stream.)

For another test, the system named is Gumbus cells. Described as above. It is filed as cell-based, human. The following applies: 25 μM, 10 min.
Excerpt: as §1, §2

As usually defined, the GI50 is the concentration giving 50% growth inhibition. Turning to `CCOc1c2c(c3cnc4cc(C)c(C)cc4n13)SSSSS2` [Compound 4], the GI50 in test [1] stood at 8.9 µM. In addition, the entries for the “fraction of damaged plasmid” value in the test with pBR322 plasmid (with 2 mM GSH) and with pBR322 plasmid (without additional thiol) were 19% and 7%, respectively. The “inhibition of GPx activity” value in the test with human GPx is reported as “about 20%”. Moreover, the ROS formation entry in the test on HL-60 cells is listed as “rapid but not as intense as with the Gumbus line”; in the test with Gumbus cells, “significant burst of ROS”.
